Results taken from PubChem BioAssay AID463074 (Broad Institute, 2010).
“And” between values parts separate entries of the source, which are not always exact repeats. Equal entries are not always repeated. The source made the active and inactive calls.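 How the source made its calls: active means AC50 no more than tenfold above the top dose tested, or full inhibition at every dose with a flat fit (cut at about 19 µM in these data); inconclusive means flat curve fit with inhibition between 30% and 70%, or poor fit; inactive means AC50 more than tenfold above the top dose tested.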

Test system: HMLE_sh_eGFP viability, CellTiter-Glo luminescence, 72 h
Test: viability loss of HMLE_sh_eGFP cells – cell-based, luminescence, counter-screen for HMLE_sh_ECad selective toxicity project, dose response (AID 463074);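 further: counterscreen control line to flag general toxicity for the HMLE_sh_ECad screen; potency for loss of viability as luminescence drops below DMSO wells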

SMILES | AC50
O=C(/C=C/c1ccccc1)NC(=S)NNC(=O)c1cnccn1 | 6.84 µM
Cc1ccc(OCCCCN(C)Cc2ccccc2)c(Br)c1 | 12.5 µM
CC(C)(C)OC(=O)NCCc1nnc(S(=O)(=O)Cc2ccc(Cl)cc2Cl)o1 | 5.73 µM
S=c1nc[nH]c2nc[nH]c12 | 1.52 µM
Cn1ncc2c(Nc3cccc(Cl)c3)nc(Nc3cccc(Cl)c3)nc21 | 3.71 µM
NC(=O)CC(NC(=O)Cc1ccc(Br)cc1)c1ccc(N2CCN(c3ccccc3)CC2)c([N+](=O)[O-])c1 (stereo unspecified) | 17.6 µM
O=c1cc(-c2ccccc2)[nH]n1-c1ccc([N+](=O)[O-])cc1 | 8.23 µM
CC(C)(C)OC(=O)N1CCC(NC(=O)c2[nH]cnc2C(=O)Nc2ccc(Cl)cc2)CC1 | 5.94 µM
COc1ccc(/C=C/C(=O)c2ccncc2)c2ccccc12 | 10 µM
c1ccc(CNc2nc(N3CCN(Cc4ccccc4)CC3)nc3ccccc23)cc1 | 3.91 µM
CN1C(=O)/C(=C/c2cc(N=Nc3ccccc3)ccc2O)SC1=S | 1.29 µM
COc1ccc(OC)c(-c2csc(N(CC3CCCO3)C(=O)C3CCCCC3)n2)c1 (stereo unspecified) | 7.05 µM
O=C(/C=C/c1ccc(Cl)c([N+](=O)[O-])c1)c1ccc(O)cc1 | 3.72 µM
COc1cccc(NP(=O)(Oc2ccc(Cl)cc2)Oc2ccc(Cl)cc2)c1 | 5.83 µM
CN(CC(=O)Nc1ccc(Cl)c(Cl)c1)C(=O)C12CC3CC(CC(C3)C1)C2 | 6.2 µM
COc1cccc(Cn2nnc(C(=O)Nc3cc(Cl)ccc3OC)c2N)c1 | 0.935 µM
CC(C)(C)c1ccc(Oc2ccc(N)cc2)cc1 | 13.5 µM
Cc1cc(/C=N/n2c(COc3ccccc3)nc3ccccc3c2=O)c(O)c([N+](=O)[O-])c1 | > 10 µM (inactive)
O=C(NCc1ccc(Cl)cc1)c1cccc(NC(=O)c2ccccc2)c1 | 6.79 µM
COC(=O)c1cc(NC(=O)c2cc(-c3ccccc3Cl)oc2C(F)(F)F)ccc1N1CCOCC1 | 20.3 µM
CCOc1ccccc1CNc1ncnc2ccc(-c3c(C)noc3C)cc12 | 6.05 µM
CCOC(=O)C1=C(c2ccccc2)N=c2s/c(=C\c3cccc(O)c3)c(=O)n2C1c1cccs1 (stereo unspecified) | 3.39 µM
COC(=O)[C@@H]1C[C@]2(OC(=O)c3ccccc3)C=CC(=O)C[C@@H]2N1C(=O)OCc1ccccc1 | 7.87 µM
Oc1c(Cl)cc(Cl)cc1CNc1ccc(Br)cn1 | 3.68 µM
O=C(CSc1nc2nc(-c3cccs3)cc(C(F)(F)F)c2c(=O)[nH]1)Nc1ccc(F)c(F)c1 | 2.56 µM
O=C(Nc1ccccc1N1CCCCC1)c1ccc(Cl)c([N+](=O)[O-])c1 | 3.24 µM

SMILES | AC50
COc1ccc(C(=O)CSc2nnc(CN3CCCCC3)n2-c2ccc(Cl)cc2)cc1OC | 9.46 µM
CN(C)c1ccc(-c2cc(O)c3ncccc3c2)cc1 | 12.8 µM
COc1ccc(Br)cc1C(=O)NC(=S)Nc1cc(-c2nc3ccccc3[nH]2)ccc1C | > 19.5 µM (inactive)
COc1cccc2sc3cc(C#CC4(O)CCCCC4)ccc3c(=O)c12 | 3.1 µM
C/C(=N\NC(=O)c1nnn(-c2nonc2N)c1CN1CCCCC1)c1ccccc1O | 4.26 µM
CCOC(=O)c1c(NC(=O)C2COc3ccccc3O2)sc2c1CC(C)(C)NC2(C)C (stereo unspecified) | 9.86 µM
Cc1cc(NCCCn2ccnc2)n2nc(C)c(-c3ccc(Cl)cc3)c2n1 | 6.46 µM
CC(C)COC(=O)c1cccc2c1-c1ccccc1/C2=N\O | 5.27 µM
CCC(C)n1c(O)c(/C=N/Nc2ccccc2)c(=O)[nH]c1=S (stereo unspecified) | 3.58 µM
CC(C)CCn1c(N)c(C(=O)NCc2cccs2)c2nc3ccccc3nc21 | 7.25 µM
CN(C)c1ccc(-c2cc([C@H]3[C@@H]4C=CCC[C@@]4(C)C(=O)N3Cc3ccccc3)ccc2F)cc1 | 6.46 µM
O=[N+]([O-])c1ccc(Cl)c(/C=N/n2c(C3CCCCC3)n[nH]c2=S)c1 | > 19.5 µM (inactive)
CC(=O)O[C@H]1[C@H]2O[C@]23[C@@H]2CC[C@]4(O)C[C@@H](O)CC[C@]4(C)C2CC[C@]3(C)[C@H]1c1ccc(=O)oc1 (stereo partly specified) | < 0.16 µM
Cc1ccccc1-n1c(SCC(=O)N/N=C/C=C/c2ccccc2[N+](=O)[O-])nc2ccccc2c1=O | > 19.5 µM (inactive)
COc1ccc(C(=O)Nc2ccc(Nc3ccccc3)cc2)cc1[N+](=O)[O-] | 4.19 µM
Cc1ccc(S(=O)(=O)Nc2ccc3c(c2)CC(=O)N([C@H](C)CO)C[C@@H](C)[C@H](CN(C)Cc2ccc(-c4ccccc4)cc2)O3)cc1 | 2.29 µM
CCC(C)c1ccc(NC(=O)C2CC3CCC2C3)cc1 (stereo unspecified) | 4.98 µM
N#Cc1c(-c2ccccc2)cc(-c2ccccc2)nc1SCCC(=O)O | 2.41 µM
C/C(=N\NC(=O)c1nnn(-c2nonc2N)c1CN1CCc2ccccc21)c1ccccc1O | 3.21 µM
COc1ccccc1Nc1ccc(NC(=O)c2cccc([N+](=O)[O-])c2C)cc1 | 3.82 µM
Clc1ccc2c(N/N=C/c3cccc(Br)c3)ccnc2c1 | 4.06 µM
C=C1/C(=C\C=C2/CCC[C@]3(C)[C@@H]([C@H](C)/C=C/[C@@H](O)C4CC4)CC[C@@H]23)C[C@@H](O)C[C@@H]1O | 6.49 µM
Clc1ccc(Cl)c(OCCCCN2CCNCC2)c1 | 9.58 µM
CC[C@H]1CC2CN3CCc4c([nH]c5c([C@H]6C[C@H]7[C@H](CC)CN(C)[C@@H](Cc8c6[nH]c6ccccc86)[C@H]7C(=O)OC)c(OC)ccc45)C(C(=O)OC)(C2)C13 | 4.25 µM
CC1=C(CO)C(=O)OC([C@@H](C)C2CC[C@H]3C4C[C@H]5O[C@]56[C@@H](O)C=CC(=O)[C@]6(C)C4CC[C@]23C)C1 (stereo partly specified) | 1.62 µM
C[C@@H]1O[C@@H](O[C@@H]2C=C3CC[C@@H]4C(CC[C@]5(C)[C@@H](c6ccc(=O)oc6)CC[C@]45O)[C@@]3(C)CC2)[C@H](O)[C@H](O)[C@H]1O (stereo partly specified) | < 0.16 µM

SMILES | AC50
O/N=C/c1ccnc(SCc2ccc(Cl)cc2)n1 | 10.9 µM
CCCc1[nH]c2ccc(C#N)cc2c1CCC | 4.14 µM
COc1cc(-c2noc(C)c2/C=C/c2ccc(OC(C)=O)cc2)cc(OC)c1OC | 0.292 µM
O=C(O)c1ccc(Cl)c(S(=O)(=O)N(Cc2ccccc2)c2ccc(F)cc2)c1 | 14.5 µM
C/C(=N\Nc1ccccc1)c1c(O)[nH]c(=O)[nH]c1=O | 2.25 µM
CC/C(=C(\c1ccccc1)c1ccc(OCCN(C)C)cc1)c1ccccc1 | 6.69 µM and 6.32 µM
Cc1nc(NCc2ccco2)c2c(C)c(C)sc2n1 | 5.22 µM
COc1cc(OC)cc(-c2sc3ccc(OC)cc3c2C#CCCO)c1 | 7.93 µM
NC(=O)c1sc(-c2ccsc2)cc1NS(=O)(=O)c1ccc(C(F)(F)F)cc1 | 16.1 µM
Cn1nc([N+](=O)[O-])c(C(C#N)c2ccccn2)c(Cl)c1=O (stereo unspecified) | 15.3 µM
CCCCCc1cc(=O)oc2c(C(CCN3CCCC(C)C3)c3ccc4c(c3)OCO4)c(OC)cc(OC)c12 (stereo unspecified) | 6.78 µM
CC(C)(C)[C@@H]1CCC(=O)N(CC[C@H](Sc2ccccc2)c2ccccc2)CC1 | 3.95 µM
CCOC(=O)c1c(NC(=O)c2nn(CC)cc2Br)sc2c1CCCCC2 | 1.95 µM
CCCn1c(=O)c(C(=O)NNS(=O)(=O)c2ccc(Cl)cc2)c(O)c2ccccc21 | 2.03 µM
C=CCc1cccc(/C=N/NC(=O)c2ccc3nc[nH]c3c2)c1O | 6.2 µM
O=C(N[C@H]1C/C=C\C[C@@H](CC(=O)N(CCO)Cc2ccccc2)C(=O)NC[C@H](c2ccccc2)OC1=O)OCC1c2ccccc2-c2ccccc21 | 2.41 µM
CCc1ccc2[nH]c(=O)c(C3C(C#N)=C(N)Oc4c3ccc3cccnc43)cc2c1 (stereo unspecified) | 8.92 µM
Cc1cccc(-n2ncc(Cl)c(Cl)c2=O)c1 | 4.52 µM
C[C@@H]1CN([C@@H](C)CO)C(=O)c2cc(NC(=O)Nc3ccc(F)cc3)ccc2O[C@@H]1CN(C)Cc1ccc(Oc2ccccc2)cc1 | 3.48 µM
O=C1Nc2ccc(Cl)cc2[C@@](C#CC2CC2)(C(F)(F)F)O1 | 7.55 µM
CC(C)(C)c1ccc(C(=O)CC(Sc2ccc(Cl)cc2)C(=O)O)cc1 (stereo unspecified) | 9.07 µM
C=CCC[C@H](Cc1ccc(F)cc1)C(=O)OC[C@@H](Cc1c[nH]c2ccccc12)NC(=O)[C@H](CC=C)CC(=O)N(CCO)Cc1ccccc1 | 4.1 µM
CNC(=O)c1cc(Oc2ccc(NC(=O)Nc3ccc(Cl)c(C(F)(F)F)c3)cc2)ccn1 | 2.39 µM
Cc1ccc(-c2cc(C(=O)N3CCN(c4ccc(O)cc4)CC3)c3ccccc3n2)cc1 | 8.38 µM
COc1ccc(C(=O)/C=C/c2ccc(OC)c(Cn3nnc4ccccc43)c2)cc1 | 6.82 µM
COc1ccc(C(C)(C)C)cc1NC(=O)Nc1ccc2c(c1)OCO2 | 8.21 µM

SMILES | AC50
Cc1onc(-c2c(Cl)cccc2Cl)c1C(=O)NNc1ccccc1 | 2.09 µM
Cc1ccc(NC(=O)/C=C/c2ccc3c(c2)OCO3)nc1 | 1.16 µM
CC(C)N1CCN(Cc2ccc(OC3CCCC3)cc2)CC1CCO (stereo unspecified) | 16.7 µM
Clc1cc2cccnc2c2ncccc12 | 3.56 µM
CC(=O)N1c2ccc(Cl)cc2C2C=CCC2C1c1cccc2ccccc12 (stereo unspecified) | 5.36 µM
NCCNc1ccc(C(=O)N2c3ccccc3Sc3ccccc32)cc1[N+](=O)[O-] | 8.03 µM
CCOc1ccccc1N(C(=O)Nc1ccc(Cl)cc1)C1=NCCS1 | > 19.5 µM (inactive)
CCC(C)NCCOc1ccc(C(C)(C)c2ccccc2)cc1 (stereo unspecified) | 5.92 µM
Cc1ccc(OCC(O)Cn2c3ccccc3c3ccccc32)cc1 (stereo unspecified) | 6.78 µM
CCc1ccc(NC(=O)C(CC)Sc2nc3cc4c(cc3c(=O)n2Cc2ccco2)OCO4)cc1 (stereo unspecified) | 13.1 µM
COc1cc(NC(=O)c2csc(N)n2)cc(C(=O)Nc2cccc(C(F)(F)F)c2)c1 | 5.65 µM
NC(=O)c1ccc(NC(=O)COC(=O)c2c3c(nc4ccccc24)/C(=C\c2cccs2)CCC3)cc1 | 10.3 µM
O=C(Nc1nnc(-c2ccc(Cl)cc2)o1)c1nc2ccccc2s1 | 5.29 µM
Cc1ccccc1-c1ccc(CN2CCN(C)C(CCO)C2)cc1 (stereo unspecified) | 5.43 µM
Cc1ccccc1N=C(NOCc1ccc(Cl)cc1Cl)c1nonc1N | 3.81 µM
CCSc1nnc(NC(=O)NC(CC)(C(F)(F)F)C(F)(F)F)s1 | 12 µM
O=C(Nc1cccc(-c2csc(Nc3ccc(Cl)cc3)n2)c1)c1cc([N+](=O)[O-])cc(C(F)(F)F)c1 | 6.88 µM
O=C(/C=C/c1ccc(Cl)cc1)c1ccc([N+](=O)[O-])o1 | 2.19 µM
COc1cc2c(cc1NC(=O)c1cccc(S(=O)(=O)N(C)C)c1)oc1ccccc12 | 3.52 µM
Cc1cc(C(=O)NNc2ccc(Cl)cc2)no1 | 1.37 µM
CC(C)(C)c1ccc(/C=C(\c2nc3ccccc3[nH]2)S(=O)(=O)c2ccccc2)cc1 | 1.42 µM
Cc1cc(N2CCCCC2)n2ncc(-c3ccc(Cl)cc3)c2n1 | 6.51 µM
COc1ccc(C2c3ccc4ccccc4c3Oc3ncn(Cc4ccco4)c(=N)c32)cc1OC (stereo unspecified) | 7.58 µM
